For one data set, the system named is primary Pan-T donors. The note with it: primary Pan-T cells, RNP + ssODN, M3814 for 24 hours after transfection.
The subject of a further data set is AAVS1. Put plainly: CAR insertion efficiency at AAVS1 in primary T-cells. The format is cell-based, human.
In data set [1] the test system is PDCD1, TIM3, LAG3, TIG1T, CTLA4, PTPN6, PTPN11 and CD247. Description: gNA screen: INDEL frequency at eight loci in Jurkat T-cell leukemia cell line. The format is cell-based, human. The conditions noted are these: gNAs adjacent to all YTTN PAM variants. How it is done: Ribonucleoprotein complexes (RNPs) were generated by incubating respective guide nucleic acids (gNAs) with MAD7 in the molar ratio of 3:2 gNA: MAD7 for 15 minutes at room temperature immediately before transfection. For Jurkat experiments, the RNP complexes were generated by mixing the respective gNA ([…]), MAD7 ([…]), and nuclease-free water, unless otherwise stated.
Lonza 4D Nucleofector with Shuttle unit (V4SC-2960 Nucleocuvette Strips) was used for transfection, following the manufacturer's instructions. […]
Extracted genomic DNA was quantified using the NanoDrop (ThermoFisher Scientific). […] The DNA was eluted from the beads with nuclease-free water and the size of the purified amplicons analyzed on a 2% agarose E-gel using the E-gel electrophoresis system (ThermoFisher Scientific). In the second PCR, unique pairs of Illumina-compatible indexes (Nextera XT Index Kit v2) were added to the amplicons using the KAPA HiFi HotStart Ready Mix (Roche). […] Sizes of the purified DNA fragments were validated on a 2% agarose gel using the E-gel electrophoresis system (ThermoFisher Scientific), quantified using Qubit dsDNA HS Assay Kit (Thermo Fisher) and then pooled in equimolar concentrations. […] The final library was sequenced on Illumina MiSeq System using the MiSeq Reagent Kit v.2 (300 cycles, […], paired-end reads). […]

The test system of another data set is AAVS1 locus. Put plainly: INDEL frequency at the AAVS1 locus in Jurkat cells. Type of data set: cell-based, human. The note with it: MAD7 RNP. From the text:
The Jurkat T-cell leukemia cell line was used to evaluate the transgene insertion and expression efficiency using CRISPR-MAD7 RNP complexes. […] Specifically. […] Dark grey bars represent mean INDEL frequency using crAAVS1. Light grey bars represent mean modification frequency using crIDTneg (IDT). The HDR inserts comprised eight promoters (Table 4) differing in both size and promoter strength to drive GFP expression (FIG. 21). […] Specifically. […] HDR templates consisting of eight different promoters and flanked with symmetric homology arms of 500 base pairs in the amount of 0.5 μg μL^−1 were used. Size of promoters in base pairs: CMV, 1400; SCP, 970; CMVe-SCP, 1270; CMVmax, 1830; JET. 1100; CAG, 2600; PGK, 1410; EF-1a, 2090. Dark grey bars and circles present mean insertion frequency and cell viability using crAAVS1. Light grey bars represent mean insertion frequency and cell viability using crIDTneg (IDT).

The next data set deals with CD247. Put plainly: gNA validation: frameshift (ORF disruption) frequency, CD247. The format is cell-based, human. The note with it: Jurkat, CRISPResso2 ORF analysis. How it is done:
Initial quality assessment of the obtained reads was performed with FastQC36. The sequencing data were aligned and analyzed with the CRISPResso2 software, using CRISPRessoBatch command with the parameters—cleavage_offset 1—quantification_window_size 10—quantification_window_center 1—expand_ambiguous_alignments for the INDEL frequency analysis. For the ORF disruption analysis, CRISPRessoBatch command with the parameters—cleavage_offset 1—coding_seq <EXON_SEQ>—quantification_window_size 0—quantification_window_center 1—expand_ambiguous_alignments was used. Modification rates from the CRISPResso2 software output were analyzed in Excel.
(§1) High-efficiency gNAs identified in our initial analysis were validated by assaying INDEL frequency for the top three or five gNAs for each of the selected immunologically relevant genes (FIG. 15). […] Alternating grey and white zones on the plot represent groups of three to five high-efficiency gNAs per locus. […] Using the CRISPresso2 software, the degree of open reading frame (ORF) disruption for each of the validated gNAs was estimated (FIG. 15). In addition, for four high-efficiency gNAs targeting three different exons at the PDCD1 locus, surface expression of the PDCD1 protein was measured by flow cytometry 4, 7, and 11 days post-transfection (data not shown).
Average fraction of INDELs leading to frameshifts (dashed line) is approx. 66%. […]

Data set [2] deals with predicted off-target sites. Put plainly: INDEL frequency at predicted off-target sites (CasOFFinder, targeted deep sequencing) in Jurkat cells. The format is cell-based, human. The conditions noted are these: crPDCD1: <=4 mismatches, remaining gNAs <=3 mismatches, vs MOCK, Pairwise T-test. The procedure:
Another consideration for selecting gNAs is the potential for off-target cleavage events. The list of validated gNAs was analyzed using the CasOFFinder software to predict potential off-target editing sites in the genome with up to four mismatches between the gNA and the target DNA sequence. Using the Bioconductor R packages, the predicted off-target sites were matched with the human gene database, and those sites that targeted exons and introns within the genes were extracted. Afterwards, the degree of editing activity at these sites was examined by targeted next-generation sequencing, more specifically, at 25 predicted off-target sites for the top-two PDCD1 gNAs, i.e., crPDCD1_1 and crPDCD1_2. […] INDEL frequency at 43 putative off-target sites with up to three mismatches between gNA and target DNA sequence were assayed for the top-two gNAs targeting seven remaining genes (i.e., TIM3, LAG3, TIG1T, CTLA4, PTPN6, PTPN11, and CD247; spacer sequences in Table 5). […] Specifically. FIGS. 18-19 show INDEL frequency of MAD7 (n=3; Mean±SD) in T-cell leukemic cell line at predicted off-target sites analyzed by targeted deep sequencing. For crPDCD1. INDEL frequency was analyzed at the putative off-target editing sites with ≤4 mismatches between the gNA and target DNA sequence, and with ≤3 mismatches on the remaining gNAs.

The next data set deals with PDCD1 protein. Put plainly: Surface expression of the PDCD1 protein by flow cytometry in Jurkat cells. Type of data set: cell-based, human. The note with it: flow cytometry 4, 7 and 11 days post-transfection, crPDCD1_2 value at day 4, same at day 11. How it is done:
For detection of PDCD1 knock-out efficiency, approx. 250,000 Jurkat cells per sample were transferred onto 96-well V-bottom cell culture plates and assessed following a series of consecutive washing and staining steps. The first step included centrifuging the cells at 300 g for 5 minutes at 4° C., and discarding the supernatant. Afterwards, the cells were stained using 100 μL Cell Staining Buffer (Biolegend) with APC/Cyanine7 anti-human CD279 (PD-1) antibody (1:100: Biolegend) and incubated for 30 minutes at 4° C., in the dark. The cells were then centrifuged at 300 g for 5 minutes at 4° C., and the supernatant discarded. The next step included two repeats of centrifugation at 300 g for 5 minutes at 4° C., supernatant removal, and cell washing in 150 μL ice-cold Cell Staining Buffer (Biolegend). In the final step, the cells were re-suspended in 100 μL Cell Staining Buffer for the flow cytometry measurements (excitation: red laser; emission: […]).
as §1
(In general: A flow cytometer gives signals particle by particle.)

This is an account of results in patent US20250179481A1, “COMPOSITIONS AND METHODS FOR TARGETING, EDITING, OR MODIFYING GENES” (Celyntra Therapeutics SA, priority 2021, published 2025).

Experimental for primary Pan-T donors: The targeted ssODN template (Table 11) was transfected with RNPs in three primary Pan-T donors. Cell pools were harvested post recovery for genotypic evaluation (i.e. modification incorporation via NGS) and also functional analysis (FACS staining).
Conditions were the same as Example 1, and in addition after transfection the cells were treated with the HDR enhancer M3814 for 24 hours to block the NHEJ pathway and 5 thereby increase the incorporation of the ssODN at the on-target side.

With `COc1ccc([C@@H](O)c2cc(-c3ncnc4cc(N5CCOCC5)ccc34)c(F)cc2Cl)nn1` [M3814], in the data set on primary Pan-T donors, the “increase in perfect HDR” value was 1.5 fold. The “more efficient CAR insertion than other experiments” value in the data set with AAVS1 is recorded as roughly 5 times.

For “MAD7: type V-A Cas nuclease, SEQ ID NO: 37”, the “editing by PAM motif” value in data set [1] is reported as “editing with all eight combinations of YTTN PAM”.

For “crAAVS1: highly active gNA targeting the AAVS1 safe-harbor locus, spacer sequence in Table 5 (guide TTAGGATGGCCTTCTCCGACG; spacer only, further chemistry not given here)”, the “INDEL frequency at the AAVS1 locus” value in the data set on AAVS1 locus is on record as “highly active”.

On to “crCD247_4: validated high-efficiency gNA, CD247 (guide CTAGCAGAGAAGGAAGAACCC; spacer only, further chemistry not given here)”, for which the “frameshifts frequency (fraction of frameshift to INDEL)” value in the data set on CD247 is reported as 97%.

On to “crPDCD1_1: top-two PDCD1 gNA (guide GCACGAAGCTCTCCGATGTGT; spacer only, further chemistry not given here)”, for which the “INDEL frequency at predicted off-target sites” value in data set [2] was “No significant INDEL frequency”.

For the molecule “crPDCD1_2: gNA targeting the PDCD1 gene at the extracellular domain of the protein (guide TCTGCAGGGACAATAGGAGCC; spacer only, further chemistry not given here)”, the “INDEL frequency at predicted off-target sites” value in data set [2] is “low-level off-target activity”. Further, in the data set with PDCD1 protein, the “surface expression of the PDCD1 protein” value is 10%.

Consider poly-L-glutamic acid [PGA], for which the “CAR insertion efficiency, treatment with PGA compared to without PGA” value in the data set on AAVS1 (primary T-cells, P<=0.05, data not shown) is listed as “higher”.
